In patent US9579329B2, “Use of estetrol as emergency contraceptive” (Estetra S.P.R.L., priority 2011, dated 2017):
Like-named read-outs stand apart in the source and are kept apart here.

Legend:
[1] = test system: ovulation in four-day cyclic rats; assay: Anti-ovulatory effect in four-day cyclic rats, oral twice daily for four days, ova per oviduct counted; format: in vivo, rat; details: for ED50: Rattus norvegicus, po, 96 h, four-day cyclic rats; for rats with ovulation inhibited: Days 1-4, 8 rats per group
Description: Vaginal smears from female rats were obtained daily for two weeks prior to the start of treatment to identify four-day cycling rats. All treatments were administered orally twice daily at approximately 6:30 am and 4:30 pm for four consecutive days (Days 1-4), starting on the day of estrus. One day after the final dose (Day 5), the rats were euthanized by CO2 asphyxiation at approximately 1 pm, and the number of ova per oviduct was counted by visualization under a dissecting microscope and recorded. In one study, animals (8 per group) were treated with E4 (0.03; 0.1; 0.3; 1.0 or 3.0 mg/kg) or ethinylestradiol (EE) (0.0003; 0.001; 0.003, 0.01 or 0.03 mg/kg). The control group was given the vehicle only. In another study, the antiovulatory activity of E4 was evaluated relative to that of estradiol (E2). Animals (8 per group) were treated with E4, E2 or vehicle (control group).

plasma LH levels = assay: Pharmacodynamics: plasma LH levels after a single oral dose in postmenopausal women; format: in vivo, human
Description: (§1) In the present example the safety, tolerability, pharmacokinetics and pharmacodynamics of a single escalating dose of E4 (0.1, 1, 10 and 100 mg) was evaluated in healthy postmenopausal women.
(§2) A double-blind, randomized, placebo-controlled, single rising dose study (0.1, 1, 10 and 100 mg of E4) was performed in healthy postmenopausal women. 32 healthy postmenopausal female volunteers between 53 and 69 years of age were enrolled. Menopause was defined as ≧12 months amenorrhea or 6 months amenorrhea with serum FSH levels≧40 IU/l and serum E2<73 pmol/l. […] A total of 8 subjects were assigned to each dose group; six subjects received active treatment and two subjects received placebo.
The maximum mean suppression was 48% at 4 hours after dosing. A second LH trough of 45% is seen at 12 hours after dosing, synchronous with the mean E4 levels.

[2] = test system: ovulation and pregnancy in fertile female rabbits; assay: Prevention of pregnancy in rabbits, twice daily dosing for 14 days starting four days before mating; format: in vivo, rabbit
Description: Eighteen proven fertile female rabbits, 3 per group were dosed twice daily at approximately 12 hour intervals for 14 days starting four days before mating: Group 1: vehicle control (ASV: 0.9% sodium chloride, 0.4% polysorbate 80, 0.5% carboxymethylcellulose and 0.9% benzyl alcohol in distilled or deionised water, 1 ml/kg), Group 2: 0.01 mg/kg E4 in ASV, 1 ml/kg, Group 3: 0.03 mg/kg E4 in ASV, 1 ml/kg, Group 4: 0.1 mg/kg E4 in ASV, 1 ml/kg, Group 5: 0.3 mg/kg E4 in ASV, 1 ml/kg and Group 6: 1.0 mg/kg E4 in ASV, 1 ml/kg. Doses were determined by body weights taken the first day of dosing and were adjusted according to weights obtained one week later. Each female rabbit was bred with two proven fertile male rabbits after four days of dosing. The females were necropsied ten days later and the number of pregnancies were determined.

[3] = test system: healthy postmenopausal women; assay: Safety and tolerability of a single rising oral dose in healthy postmenopausal women; format: in vivo, human; details: for safety and tolerability after single administration: dose up to 100 mg, humans
Description: as §1, §2

[4] = test system: estrogen-sensitive parameters related to hepatic and bone metabolism; assay: Pharmacodynamics: estrogen-sensitive hepatic and bone metabolism parameters and endometrial stimulation in postmenopausal women; format: in vivo, human; details: single oral dose
Description: as §1, §2
Some fast reacting, estrogen-sensitive parameters related to hepatic and bone metabolism were determined in the 100-mg dose group only. […] Interpretation of the pharmacodynamic data must be made with care taking into consideration the small number of subjects and the single dose administration.

mated female Wistar rats = assay: Effects of E4 on the pregnancy of the Wistar rat, oral gavage Day 6 to 17 of gestation; format: in vivo; details: for females observed to be hunched towards the end of gestation: seven rats per group
Description: In one study, groups of seven mated female rats were given E4 orally, by gavage, at dose levels of 30, 60 or 90 mg/kg/day from Day 6 to 17 of gestation inclusive. A similar group of seven rats was given the vehicle, 0.5% w/v carboxymethylcellulose, over the same period to act as controls. On Day 20 of gestation, the females were examined.
In another study, using the same protocol as the study above, groups of seven mated female rats were given E4 at dose levels of 0.1, 0.3, 1, 3 and 10 mg/kg/day or vehicle (controls).

FSH levels = assay: Pharmacodynamics: FSH levels after a single oral dose in postmenopausal women; format: in vivo, human; details: 100 mg dose group
Description: as §1, §2

[5] = test system: adult female cynomolgus monkeys; assay: Maximum tolerated dose (MTD) study in adult female cynomolgus monkeys; format: in vivo
Description: A maximum tolerated dose (MTD) study was performed in adult female cynomolgus monkeys.
Three control animals were treated orally with vehicle, and four other animals were treated orally with E4 as a suspension in vehicle at single increasing doses of 1, 10, 100 or 1000 mg/kg on days 1, 3, 6 and 14 respectively.

[6] = Pharmacokinetics of a single oral dose in healthy postmenopausal women; format: in vivo, human; details: for half-life: female, human, plasma, po, postmenopausal women
Description: as §1, §2
Plasma concentration profiles could not be determined in subjects of the 0.1 mg group.

[7] = another study, E4 vs E2, p.o., read-out: antiovulatory ED50
[8] = 0.01 mg/kg twice daily, one female failed to breed
[9] = 0.03 mg/kg twice daily, 3 animals per group
[10] = 1.0 mg/kg twice daily, 3 animals per group
[11] = 30, 60 or 90 mg/kg/day oral gavage, Day 6 to 17 of gestation
[12] = all dose groups 30, 60, 90 mg/kg/day
[13] = single increasing oral doses 1-1000 mg/kg

## C[C@]12CC[C@@H]3c4ccc(O)cc4CC[C@H]3[C@@H]1CC[C@@H]2O [E2, estradiol, reference compound]
[1]; [7]
  ED50: 0.03 to 0.1 mg/kg

## C[C@]12CC[C@@H]3c4ccc(O)cc4CC[C@H]3[C@@H]1[C@@H](O)[C@@H](O)[C@@H]2O [E4, 1,3,5(10)-estratrien-3, 15α, 16α, 17β-tetrol]
Plasma LH levels; 4 hours after dosing, 100 mg group shown in FIG. 2
  maximum mean suppression of LH: 48%
Plasma LH levels; 12 hours after dosing, 100 mg group shown in FIG. 2
  second LH trough: 45%
Plasma LH levels; up to 48 hours after dosing
  inhibition of plasma LH levels: clear dose-dependent inhibition
[2]
  dosages that caused complete prevention of pregnancy: > 0.03 mg/kg b.i.d.
[2]; [8]
  N corpora lutea, total number: 22
  N pregnancies, total number: 22
[2]; [9]
  N corpora lutea, total number: 22
  N pregnancies, total number: 21
[2]; 0.1 mg/kg twice daily, 3 animals per group
  N corpora lutea, total number: 20
[2]; 0.3 mg/kg twice daily, 3 animals per group
  N corpora lutea, total number: 20
[2]; [10]
  N corpora lutea, total number: 3
  N pregnancies, total number: 0
[2]; oral
  oral doses that induce inhibition of ovulation: > 0.3 mg/kg b.i.d.
[3]; 0.1 mg single oral dose, N = 6
  Somnolence, E = number of adverse events: 1
  Somnolence, n = number of subjects with adverse events: 1
  Somnolence, percentage of subjects with adverse events: 16.7%
[3]; 1 mg single oral dose, N = 6
  Somnolence, E = number of adverse events: 1
  Somnolence, n = number of subjects with adverse events: 1
  Somnolence, percentage of subjects with adverse events: 16.7%
[3]; 10 mg group
  number of AEs: just one AE
[3]; 10 mg single oral dose, N = 6
  Myalgia, E = number of adverse events: 1
  Myalgia, n = number of subjects with adverse events: 1
  Myalgia, percentage of subjects with adverse events: 16.7%
[3]; 0.1, 1.0 and 10 mg
  number and nature of AEs versus placebo: similar
[3]; 100 mg
  number of AEs (all AEs and related AEs): highest
[3]; 100 mg single oral dose, N = 6
  Diarrhoea NOS, E = number of adverse events: 2
  Diarrhoea NOS, n = number of subjects with adverse events: 2
  Diarrhoea NOS, percentage of subjects with adverse events: 33.3%
  Myalgia, E = number of adverse events: 2
  Myalgia, n = number of subjects with adverse events: 2
  Myalgia, percentage of subjects with adverse events: 33.3%
  Somnolence, E = number of adverse events: 2
  Somnolence, n = number of subjects with adverse events: 2
  Somnolence, percentage of subjects with adverse events: 33.3%
[3]
  safety and tolerability after single administration: In conclusion, the results of this study showed that E4 after single administration at a dose up to 100 mg is safe and well tolerated.
[3]; listed as estetrol
  safety and tolerability after single administration: safe and well tolerated
[3]; one subject of the 100 mg group, not serious, mild, probably related
  notable adverse event: allergic reaction (urticaria)
[3]; single doses 0.1, 1, 10 and 100 mg
  severe or serious adverse events: No severe or serious adverse events
[3]; single doses 0.1-100 mg
  changes in ECGs, laboratory tests or vital signs: no notable changes
[4]
  endometrial stimulation (withdrawal bleeding after progestogen post treatment): No significant endometrial stimulation
[1]; 0.03 mg/kg p.o. twice daily
  rats with ovulation inhibited: did not inhibit ovulation
[1]; 0.1 mg/kg p.o. twice daily
  rats with ovulation inhibited: 2 of 8
[1]; 0.3 mg/kg p.o. twice daily
  rats with ovulation inhibited: 5 of 8
[1]; 1.0 mg/kg p.o. twice daily
  rats with ovulation inhibited: 7 of 8
[1]; 3.0 mg/kg p.o. twice daily
  rats with ovulation inhibited: 8 of 8
[1]; [7]
  ED50: 0.204 mg/kg
Mated female Wistar rats; 3 mg/kg/day
  females observed to be hunched towards the end of gestation: one female
Mated female Wistar rats; 10 mg/kg/day
  mean body weight during treatment period: overall loss in mean body weight
  mean food intake: reduced mean food intake
  females observed to be hunched towards the end of gestation: Three females
Mated female Wistar rats; 0.1, 0.3, 1 and 3 mg/kg/day
  mean body weight gains over treatment period: less than the controls
Mated female Wistar rats; 0.3, 1 and 3 mg/kg/day
  mean gravid uterus weight: reduction in mean gravid uterus weight
Mated female Wistar rats; 1 and 3 mg/kg/day
  mean food intake over treatment period: slightly lower than the control
Mated female Wistar rats; [11]
  clinical observations or necropsy findings related to treatment: no relevant unexpected clinical observations or necropsy findings
  deaths: no deaths
Mated female Wistar rats; [12]
  group mean body weight over treatment period: Group mean body weight loss
  mean food intake over treatment period: marked reduction in mean food intake
Mated female Wistar rats; another study, 0.1, 0.3, 1, 3 and 10 mg/kg/day
  deaths: no deaths
Mated female Wistar rats; dose level below 3 mg/kg/day
  maternal toxicity: only slight maternal toxicity
FSH levels; 48 hrs after dosing
  maximum suppression of FSH: 41%
FSH levels; up to 168 hours (1 week) after dosing
  inhibition of FSH levels: profound and sustained inhibition
[5]; 1 mg/kg, the day after dosing
  animals with decreased levels of inorganic phosphorus: 3 of 4
[5]; 1000 mg/kg oral, approximately 12 h after dosing
  adverse clinical sign: emesis in one E4-treated animal
[5]; after the 100 mg/kg dose
  animals with decreased levels of inorganic phosphorus: all E4-treated animals
[5]; after the 1000 mg/kg dose
  animals with decreased levels of inorganic phosphorus: all E4-treated animals
[5]; doses up to 1000 mg/kg
  tolerability of single oral treatment: well tolerated
[5]; [13]
  effects on body weight or haematological parameters: No effects
  gross necropsy: did not reveal any unusual findings
  liver parameters (AST, ALT): no apparent test item- or dose-related findings
[6]; dose range tested
  oral bioabsorption: high and dose-proportional
[6]; single oral dose, read-out: terminal half life (converted)
  half-life: 28 h
[6]; single oral dose, read-out: terminal half life, ranges
  half-life: 18 to 60 h
[6]; range from 1 to 100 mg oral
  Cmax dose proportionality: proportional
[6]; range from 10 to 100 mg oral
  AUC0-∞ dose proportionality: proportional to the oral dose
[6]; single oral dose
  absorption: extremely fast
  terminal half life and fractional clearance, effect of dose level: not affected by dose level
[6]; single oral dose, 1-100 mg
  inter-subject variability of pharmacokinetic data: very low

## C#C[C@]1(O)CC[C@H]2[C@@H]3CCc4cc(O)ccc4[C@H]3CC[C@@]21C [EE, ethinylestradiol, reference compound]
[1]; study E4 vs EE, p.o. twice daily, read-out: calculated antiovulatory ED50
  ED50: 0.01 mg/kg
